ChEMBL document CHEMBL4311991, “Design, synthesis, and biological evaluation of 1-substituted -2-aryl imidazoles targeting tubulin polymerization as potential anticancer agents” (Eur J Med Chem, 2019)
pIC50: −log10 of the molar value. Calls of active or inactive are those of the source. No cut-off for these calls is given here.

Legend:
MDA-MB-231 = assay: Antiproliferative activity against human MDA-MB-231 cells assessed as reduction in cell viability after 72 hrs by MTT assay; format: functional, cell-based; settings: MDA-MB-231, 72 h
HT-29 = assay: Antiproliferative activity against human HT-29 cells assessed as reduction in cell viability after 72 hrs by MTT assay; format: functional, cell-based; settings: HT-29, 72 h
HeLa = assay: Antiproliferative activity against human HeLa cells assessed as reduction in cell viability after 72 hrs by MTT assay; format: functional, cell-based
HCT-15 = assay: Antiproliferative activity against human HCT15 cells assessed as reduction in cell viability after 72 hrs by MTT assay; format: functional, cell-based; settings: HCT-15, 72 h
MDA-MB-468 [1] = assay: Antiproliferative activity against human MDA-MB-468 cells assessed as reduction in cell viability after 72 hrs by MTT assay; format: functional, cell-based; settings: MDA-MB-468, 72 h
HUVEC = assay: Cytotoxicity against HUVEC assessed as reduction in cell viability after 72 hrs by MTT assay; format: cell-based; settings: Homo sapiens
T47D = assay: Antiproliferative activity against human T47D cells assessed as reduction in cell viability after 72 hrs by MTT assay; format: functional, cell-based
MDA-MB-468 [2] = assay: Induction of cell cycle arrest in human MDA-MB-468 cells assessed as accumulation of cells at G2/M phase at IC50 concentration by propidium iodide staining-based flow cytometric analysis; format: functional; settings: TDE = time-dependent effect
MDA-MB-468 [3] = assay: Induction of apoptosis in human MDA-MB-468 cells assessed as viable cells at 100 nM after 24 hrs by Annexin-FITC/propidium iodide staining based flow cytometry (reference value: 96.8%); format: functional; settings: MDA-MB-468, 24 h, read-out: Activity
MDA-MB-468 [4] = assay: Induction of apoptosis in human MDA-MB-468 cells assessed as necrotic cells at 100 nM after 24 hrs by Annexin-FITC/propidium iodide staining based flow cytometry (reference value: 0.97 to 1.29%); format: functional
MDA-MB-468 [5] = assay: Induction of apoptosis in human MDA-MB-468 cells assessed as late apoptotic cells at 100 nM after 48 hrs by Annexin-FITC/propidium iodide staining based flow cytometry (reference value: 1.03 to 1.59%); format: functional
MDA-MB-468 [6] = assay: Induction of apoptosis in human MDA-MB-468 cells assessed as necrotic cells at 100 nM after 48 hrs by Annexin-FITC/propidium iodide staining based flow cytometry (reference value: 0.97 to 1.29%); format: functional
MDA-MB-468 [7] = assay: Induction of apoptosis in human MDA-MB-468 cells assessed as viable cells at 100 nM after 48 hrs by Annexin-FITC/propidium iodide staining based flow cytometry (reference value: 96.8%); format: functional; settings: MDA-MB-468, 48 h, read-out: Activity
[8] = Retention time of the compound using acetonitrile:water at ratio of 50:50 as mobile phase by reverse-phase HPLC analysis; format: physicochemical; settings: buffer
MDA-MB-468 [9] = assay: Induction of apoptosis in human MDA-MB-468 cells assessed as early apoptotic cells at 100 nM after 48 hrs by Annexin-FITC/propidium iodide staining based flow cytometry (reference value: 0.35 to 1.25%); format: functional
MDA-MB-468 [10] = assay: Induction of apoptosis in human MDA-MB-468 cells assessed as late apoptotic cells at 100 nM after 24 hrs by Annexin-FITC/propidium iodide staining based flow cytometry (reference value: 1.03 to 1.59%); format: functional
MDA-MB-468 [11] = assay: Induction of apoptosis in human MDA-MB-468 cells assessed as necrotic cells at 100 nM after 72 hrs by Annexin-FITC/propidium iodide staining based flow cytometry (reference value: 0.97 to 1.29%); format: functional
MDA-MB-468 [12] = assay: Induction of apoptosis in human MDA-MB-468 cells assessed as viable cells at 100 nM after 72 hrs by Annexin-FITC/propidium iodide staining based flow cytometry (reference value: 96.8%); format: functional; settings: MDA-MB-468, 72 h, read-out: Activity
MDA-MB-468 [13] = assay: Induction of apoptosis in human MDA-MB-468 cells assessed as early apoptotic cells at 100 nM after 72 hrs by Annexin-FITC/propidium iodide staining based flow cytometry (reference value: 0.35 to 1.25%); format: functional
MDA-MB-468 [14] = assay: Induction of apoptosis in human MDA-MB-468 cells assessed as late apoptotic cells at 100 nM after 72 hrs by Annexin-FITC/propidium iodide staining based flow cytometry (reference value: 1.03 to 1.59%); format: functional
MDA-MB-468 [15] = assay: Induction of apoptosis in human MDA-MB-468 cells assessed as early apoptotic cells at 100 nM after 24 hrs by Annexin-FITC/propidium iodide staining based flow cytometry (reference value: 0.35 to 1.25%); format: functional
Mus musculus = organism: Mus musculus; assay: Inhibition of tubulin polymerization in mouse B16F10 cells assessed as disruption of microtubule network at 200 nM incubated for 6 hrs by DAPI staining based confocal microscopy; format: cell-based
MDA-MB-468 [16] = assay: Antitumor activity against human MDA-MB-468 cells xenografted in nude mouse assessed as tumour growth inhibition at 60 mg/kg, ip administered every other day for 21 days relative to control; format: functional; settings: MDA-MB-468, ip, 504 h, read-out: TGI

| Structure (SMILES) | pIC50 (MDA-MB-231) | pIC50 (HT-29) | pIC50 (HeLa) | pIC50 (HCT-15) | pIC50 (MDA-MB-468 [1]) | pIC50 (HUVEC) | pIC50 (T47D) | also measured |
| --- | --- | --- | --- | --- | --- | --- | --- | --- |
| COc1cc(-c2nccn2-c2cccc(C)c2)cc(OC)c1OC | 4.93 | 4.84 | 5.72 | 5.80 | 4.65 | < 4.00 | 4.53 |  |
| COc1ccc(-n2ccnc2-c2cc(OC)c(OC)c(OC)c2)cc1O | 5.72 | 4.77 | 7.00 | 6.70 | 6.52 | 4.27 | 4.27 |  |
| COc1cc(-c2nccn2-c2ccc3cc[nH]c3c2)cc(OC)c1OC | 5.12 | 5.44 | 5.32 | 5.40 | 5.77 | 4.40 | 4.74 |  |
| COc1cc(-c2nccn2-c2ccc(C)cc2)cc(OC)c1OC | 5.39 | 5.80 | 6.15 | 6.10 | 6.40 | < 4.00 | 4.69 |  |
| COc1cc(-c2nccn2-c2ccc3[nH]ccc3c2)cc(OC)c1OC | 5.37 | 5.04 | 5.36 | 5.34 | 5.64 | 4.33 | 5.68 |  |
| COc1cc(-c2nccn2-c2cccc([N+](=O)[O-])c2)cc(OC)c1OC | < 4.00 | < 4.00 | 5.17 | < 4.00 | 5.14 | < 4.00 | 4.75 |  |
| COc1cc(-c2nccn2-c2ccc(Br)cc2)cc(OC)c1OC | 5.08 | 5.11 | 5.48 | 4.93 | 5.57 | < 4.00 | 4.61 |  |
| COc1cc(-c2nccn2-c2ccc(F)cc2)cc(OC)c1OC | 4.42 | 4.53 | 4.76 | 4.16 | 4.21 |  | < 4.00 |  |
| COc1ccc(-n2ccnc2-c2cc(OC)c(OC)c(OC)c2)cc1 | 5.57 | 4.88 | 5.92 | 5.89 | 6.30 | < 4.30 | 5.85 |  |
| COc1ccc(-n2ccnc2-c2cc(OC)c(OC)c(OC)c2)cc1[N+](=O)[O-] | 5.12 | 6.22 | 5.60 | 6.00 | 7.00 |  | 5.00 |  |
| COc1ccc(C(=O)Nc2cc(OC)c(OC)c(OC)c2)cc1N | 4.03 | < 4.00 | < 4.00 | < 4.00 | < 4.00 |  | < 4.00 |  |
| COc1cc(-c2nccn2S(=O)(=O)c2ccccc2)cc(OC)c1OC | < 4.00 | < 4.00 | < 4.00 | < 4.00 | < 4.00 |  | < 4.00 |  |
| COc1cccc(-n2ccnc2-c2cc(OC)c(OC)c(OC)c2)c1 | 4.74 | 4.72 | 4.96 | 4.77 | 4.98 |  | 4.49 |  |
| COc1ccc(/C=C\c2cc(OC)c(OC)c(OC)c2)cc1O [COMBRETASTATIN A4] | 7.87 | 7.52 | 8.04 | 8.49 | 8.19 | < 4.00 | 7.84 | Activity (MDA-MB-468 [2]): Tde; viability at 0.1 µM (MDA-MB-468 [3]): 79.2%; Activity (MDA-MB-468 [4]): 3.67%; Activity (MDA-MB-468 [5]): 31.9%; Activity (MDA-MB-468 [6]): 7.2%; viability at 0.1 µM (MDA-MB-468 [7]): 60%; Retention_time [8]: 12.5 min; Activity (MDA-MB-468 [9]): 0.84%; Activity (MDA-MB-468 [10]): 15.7%; Activity (MDA-MB-468 [11]): 9.4%; viability at 0.1 µM (MDA-MB-468 [12]): 33.4%; Activity (MDA-MB-468 [13]): 1.84%; Activity (MDA-MB-468 [14]): 55.3%; Activity (MDA-MB-468 [15]): 1.44%; inhibition (Mus musculus): Active; inhibition in vivo at 60 mg/kg (MDA-MB-468 [16]): 87.5% |
| CCn1ccnc1-c1cc(OC)c(OC)c(OC)c1 | < 4.00 | < 4.00 | < 4.00 | < 4.00 | < 4.00 |  | < 4.00 |  |
| COc1cc(-c2nccn2-c2ccc3sccc3c2)cc(OC)c1OC | 4.77 | 5.82 | 5.85 | 5.48 | 6.40 |  | 4.77 |  |
| COc1ccc(C(=O)Oc2cc(OC)c(OC)c(OC)c2)cc1[N+](=O)[O-] | < 4.00 | < 4.00 | < 4.00 | < 4.00 | 4.45 |  | 4.53 |  |
| COc1cc(OC)cc(-n2ccnc2-c2cc(OC)c(OC)c(OC)c2)c1 | 4.34 | 4.13 | 4.38 | < 4.00 | 4.24 |  | < 4.00 |  |
| COc1ccc(NC(=O)c2cc(OC)c(OC)c(OC)c2)cc1N | 4.73 | 5.92 | 5.39 | 5.19 | 5.70 |  | 4.30 |  |
